Where no end group is shown, it is not given here. [ ]: non-standard residue; d: D form. Tyr(3-I) = N[C@@H](Cc1ccc(O)c(I)c1)C(=O)O
Columns and labels:
AA amyloid = target: T1, AA amyloid (Mus musculus, UniProt P05367); experiment: Biodistribution, SPECT/CT and micro-autoradiography of 125I-p5+14 in mice with systemic AA amyloidosis; type: in vivo, mouse (H2/IL-6 transgenic)
T1 construct: organs known to develop AA amyloid in this mouse model; from tissue; host or cells: live H2/IL-6 transgenic Balb/c mice; liver, spleen, heart, kidney, pancreas
T1 sequence (P05367 20-95 limits assumed): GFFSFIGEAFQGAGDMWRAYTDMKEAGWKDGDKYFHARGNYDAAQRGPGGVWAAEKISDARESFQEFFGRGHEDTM
Procedure: Systemic visceral AA amyloidosis was induced in H2-Ld-huIL-6 Tg Balb/c transgenic mice that constitutively express the human interleukin-6 transgene by iv injection of 10 µg of purified, splenic AA amyloid (amyloid enhancing factor; AEF) in 100 µL of sterile phosphate-buffered saline (PBS). Peptide was evaluated in mice at 4–6 wk post AEF injection when amyloid load was significant.
(§1) For serial SPECT/CT imaging in cohorts (n = 3) of AA and healthy wild type (WT) mice, peptide p5+14 (100 µg) was radioiodinated with ~4 mCi of ^125I (Perkin Elmer, Waltham, MA, USA), using 20 µg chloramine T as the oxidizing agent. After quenching the reaction with 20 µg sodium metabisulfite, the radiolabeled peptide was diluted into 0.1% sterile gelatin in PBS and free radioiodide removed by size exclusion chromatography on a 5 mL PD10 (GE Healthcare) solid phase equilibrated with 0.1% gelatin/PBS. Fractions 0f 200 µL were collected and those containing the maximal radioactivity (indicative of ^125I-p5+14) were pooled, and the product’s radiochemical purity was established by SDS polyacrylamide gel electrophoresis (PAGE) analyzed by phosphor imaging (Cyclone Storage Phosphor System, Perkin Elmer, Shelton, CT, USA).
Imaging was performed as described. Briefly, WT or AA amyloid mice (n = 3) were injected with ~3 µg of ^125I-p5+14, 125 µCi (specific activity ~40 µCi/µg) in the lateral tail vein. After the appropriate uptake time (1, 4, 24, and 48 h), mice were euthanized by isoflurane inhalation overdose. […]
(§2) Samples of liver, spleen, pancreas, kidneys, small and large intestines, stomach and heart were harvested post mortem from every mouse undergoing imaging with ^125I-p5+14 [45]. A sample of each was placed into a tared, plastic vial, weighed and the ^125I radioactivity measured using an automated Wizard 3 gamma counter (1480 Wallac Gamma Counter, Perkin Elmer). The biodistribution data were expressed as % injected dose/g tissue (%ID/g). […]

[1] = Biodistribution, SPECT/CT and micro-autoradiography of 125I-p5+14 in healthy wild type mice; type: in vivo, mouse (WT)
Procedure: as §1
Imaging was performed as described. Briefly, WT or AA amyloid mice (n = 3) were injected with ~3 µg of ^125I-p5+14, 125 µCi (specific activity ~40 µCi/µg) in the lateral tail vein. After the appropriate uptake time (1, 4, 24, and 48 h), mice were euthanized by isoflurane inhalation overdose. SPECT images were acquired using an Inveon trimodality imaging platform (Siemens Preclinical Solution, Knoxville, TN, USA; [64]) running Inveon Acquisition Workplace software (ver. 2.0). Low energy (^125I; 25–45 keV) gamma photons were acquired at each of 60, 16-sec projections with 90 mm of bed travel. A 1 mm-diameter, 5-pinhole (Mouse Whole Body) collimator was used at 30 mm from the center of the field of view. […]
as §2

[2] = target: T2, human ATTR amyloid extract (Homo sapiens, UniProt P02766); experiment: Peptide ex vivo amyloid binding assay (pull-down), ATTR extract; conditions: ATTR heart extract; ~5 ng 125I-p5+14, 25 µL of 1 mg/mL extract, PBST, 1 h RT, pellet vs supernatant CPM; N = 2
T2 construct: as well as one cardiac ATTR extract, were analyzed in this assay; from tissue; host or cells: human heart, water flotation extract

[3] = tested on: human AL and ATTR amyloid in tissue sections; experiment: Peptide histochemistry and overlay micro-autoradiography on human tissue sections; type: binding; conditions: ~5 ng/mL, 1 h room temperature; FFPE human AL and ATTR sections
Procedure: For autoradiography, 6- μm-thick sections were cut from formalin-fixed, paraffin-embedded blocks, containing tissues from mice that had received ^125I-p5+14. Mice were euthanized at 1 h pi of radiotracer. The sections were placed on Plus microscope slides (ThermoFisher Scientific, Waltham, MA, USA), dipped in NTB-2 emulsion (Eastman Kodak, Rochester, NY, USA), stored in the dark and developed after a 4 day exposure. Each section was counterstained with hematoxylin and eosin. […] Blinded qualitative assessment of amyloid load in Congo red-stained sections of liver and spleen was performed by an experienced amyloid researcher who ranked each tissue on a 0 to 4+ scale. All tissue sections were examined using a Leica DM500 light microscope (Leica, Wetzlar, Germany) fitted with cross-polarizing filters (for Congo red). Digital microscopic images were acquired using a cooled CCD camera (SPOT; Diagnostic Instruments, Sterling Heights, MI, USA).
Peptide p5+14 (with a cysteine residue at the N-terminal) was prepared for tissue staining by either biotinylation, according to the manufacturer’s instructions, using a maleimide-biotin conjugation kit (Pierce, Grand Island, NY, USA), or for overlay-micoautoradiography by radioiodination with ^125I, as described above. […]

[4] = tested on: healthy tissue homogenates; experiment: Peptide ex vivo binding assay, non-specific binding; conditions: data not shown

Substance: GGG[Tyr(3-I)]SKAQKAQAKQAKQAQKAQKAQAKQAKQAQKAQKAQAKQAKQ [125I-p5+14]
- micro-autoradiographic distribution of radiolabeled peptide in tissues (AA amyloid; AA mice, 1 h pi, 6 µm tissue sections compared with Congo red): co-localized with amyloid in diseased tissues
- 125I-p5+14 retention in the spleen (AA amyloid; mice deemed amyloid-free by Congo red histochemical staining (cohort n = 34)): > 3 %ID/g
- whole-body retention half-life (AA amyloid; mice with AA amyloidosis, iv ~3 µg 125I-p5+14, gamma counting up to 48 h pi, n = 3 per time point): > 48 h
- micro-autoradiographic distribution of radiolabeled peptide in tissues ([1]; WT mice, 1 h pi, 6 µm tissue sections): not retained by any cells or macroscopic structures in healthy tissues
- whole-body retention half-life ([1]; WT mice, iv ~3 µg 125I-p5+14, gamma counting up to 48 h pi, exponential fit, n = 3 per time point): ~ 1.5 h
- tissue uptake at 2 h ([1]; mouse, in vivo, iv, 3 ug, healthy mice, 2 h pi, read-out: retention of radioactivity in any organ): < 0.6 %ID/g
- % Bound (mean ± SD) [2]: 79.93 ± 1.23%
- overlay micro-autoradiography on human tissue sections [3]: co-localized with both AL and ATTR amyloid
- non-specific binding [4]: ~ 10%
